Results published in patent US6737383B1, “Herbicidal oxadiazolidines” (priority 1999, dated 2004).

How the values were obtained:
winter wheat [1] = test: Test E winter wheat; assay type: in vivo, Triticum aestivum; settings: Preemergence
blackgrass = test: Test E blackgrass; assay type: in vivo, Alopecurus myosuroides; settings: Preemergence
crabgrass = test: Test B pre/postemergence crabgrass; assay type: in vivo, Digitaria sanguinalis
How it was run: (§1)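 Herbicidal effect was estimated by eye on a ten-point control scale after plants spent twelve to sixteen days in a greenhouse following soil or foliar treatment. Foliar sprays targeted plants at one to four leaves; all doses were formulated in a non-phytotoxic solvent with surfactant.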

corn = test: Test B pre/postemergence corn; assay type: in vivo, Zea mays
How it was run: as §1

wild oat = test: Test E wild oat; assay type: in vivo, Avena fatua; settings: Preemergence
winter wheat [2] = test: Test E winter wheat; assay type: in vivo, Triticum aestivum; settings: Postemergence
Description: […] All plant species were grown using normal greenhouse practices. Crop and weed species include annual bluegrass (Poa annua), blackgrass (Alopecurus myosuroides), black nightshade (Solanum nigra), chickweed (Stellaria media), common poppy (Papaver rhoeas), deadnettle (Lamium amplexicaule), downy brome (Bromus tectorum), field violet (Viola arvensis), galium (Galium aparine), green foxtail (Setaria viridis), Italian ryegrass (Lolium multiflorum), jointed goatgrass (Aegilops cylindrica), kochia (Kochia scoparia), lambsquarters (Chenopodium album), littleseed canarygrass (Phalaris minor), rape (Brassica napus), redroot pigweed (Amaranthus retroflexus), Russian thistle (Salsola kali), scentless chamomile (Matricaria inodora), spring barley (Hordeum vulgare), sugar beet (Beta vulgaris), sunflower (Helianthus annuus), ivyleaf speedwell (Veronica hederaefolia), spring wheat (Triticum aestivum), winter wheat (Triticum aestivum), wild buckwheat (Polygonum convolvulus), wild mustard (Sinapis arvensis), wild oat (Avena fatua), windgrass (Apera spica-venti) and winter barley (Hordeum vulgare).
Treated plants and untreated controls were maintained in a greenhouse for approximately 21 to 28 days, after which all treated plants were compared to untreated controls and visually evaluated. […] A dash response (-) means no test result.

green foxtail = test: Test E green foxtail; assay type: in vivo, Setaria viridis; settings: Preemergence
Italian ryegrass = test: Test E Italian ryegrass; assay type: in vivo, Lolium multiflorum; settings: Preemergence
winter barley = test: Test E winter barley; assay type: in vivo, Hordeum vulgare; settings: Preemergence
velvetleaf = test: Test B pre/postemergence velvetleaf; assay type: in vivo, Abutilon theophrasti; settings: for Velvetleaf plant response rating (0 to 10 scale): 0 is no effect; for Plant response rating, Velvetleaf: Rate 250 g/ha
How it was run: as §1

rice = test: Test B flood test rice; assay type: in vivo, Oryza sativa
How it was run: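 Flood test on plants grown to the 2-leaf stage; treated plants kept in greenhouse twelve to sixteen days, then visually rated against controls on a 0 (no effect) to 10 (complete control) scale.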

[3] = Rate 31 g/ha, 0 to 100 scale, 0 no effect, 100 complete control
[4] = Rate 62 g/ha, 0 to 100 scale, 0 no effect, 100 complete control
[5] = Postemergence, Rate 62 g/ha, scale 0 to 10, 0 is no effect, 10 is complete control
[6] = Postemergence, Rate 125 g/ha, scale of 0 to 10 where 0 is no effect and 10 is complete control
[7] = Postemergence, Rate 250 g/ha, scale 0 to 10, 0 no effect, 10 complete control
[8] = Preemergence, Rate 62 g/ha, scale 0 to 10 (0 no effect, 10 complete control)
[9] = Preemergence, Rate 125 g/ha, scale 0 to 10 (0 no effect, 10 complete control)
[10] = Preemergence, Rate 250 g/ha, scale of 0 to 10 where 0 is no effect and 10 is complete control
[11] = Preemergence, Rate 500 g/ha, scale 0 (no effect) to 10 (complete control)
[12] = Rate 500 g/ha, Postemergence, scale 0 to 10, 0 no effect, 10 complete control
[13] = Preemergence, Rate 125 g/ha, 10 is complete control
[14] = Preemergence, scale of 0 to 10 where 0 is no effect and 10 is complete control
[15] = Postemergence, scale 0 to 10, 0 is no effect, 10 is complete control
[16] = Rate 500 g/ha, 0 to 100 scale where 0 is no effect and 100 is complete control
[17] = Preemergence, Rate 500 g/ha, scale 0 to 10 (0 no effect, 10 complete control)
[18] = Rate 62 g/ha, Postemergence, scale of 0 to 10 where 0 is no effect and 10 is complete control

CCCn1c(=O)on(C(=O)N(c2ccc(F)cc2)C(C)C)c1=O [Compound 91]
Plant response rating, Wheat (winter) (winter wheat [1]; [3]): 10 | Plant response rating, Wheat (winter) (winter wheat [1]; [4]): 40 | Plant response rating, Blackgrass (blackgrass; [3]): 20 | Plant response rating, Blackgrass (blackgrass; [4]): 60 | Crabgrass plant response rating (crabgrass; [5]): 5 | Crabgrass plant response rating (crabgrass; [6]): 9 | Crabgrass plant response rating (crabgrass; [7]): 9 | Crabgrass plant response rating (crabgrass; [8]): 10 | Plant response rating, Crabgrass (crabgrass; [9]): 10 | Plant response rating, Crabgrass (crabgrass; [10]): 10 | Crabgrass plant response rating (crabgrass; [11]): 10 | Crabgrass plant response rating (crabgrass; [12]): 9 | Corn plant response rating (corn; [5]): 2 | Corn plant response rating (corn; [6]): 2 | Corn plant response rating (corn; [7]): 3 | Corn plant response rating (corn; [8]): 3 | Plant response rating, Corn (corn; [9]): 6 | Plant response rating, Corn (corn; [10]): 8 | Corn plant response rating (corn; [11]): 9 | Corn plant response rating (corn; [12]): 5 | Plant response rating, Wild oat (wild oat; [3]): 40 | Plant response rating, Wild oat (wild oat; [4]): 60 | Plant response rating, Wheat (winter) (winter wheat [2]; [3]): 0 | Plant response rating, Wheat (winter) (winter wheat [2]; Rate 62 g/ha, 0 to 100 scale): 10 | Plant response rating, Green foxtail (green foxtail; [3]): 60 | Plant response rating, Green foxtail (green foxtail; [4]): 80 | Plant response rating, I. Ryegrass (Italian ryegrass; [3]): 40 | Plant response rating, I. Ryegrass (Italian ryegrass; [4]): 40 | Plant response rating, Barley (winter) (winter barley; [3]): 20 | Plant response rating, Barley (winter) (winter barley; [4]): 40 | Velvetleaf plant response rating (velvetleaf; [5]): 0 | Velvetleaf plant response rating (velvetleaf; [6]): 0 | Velvetleaf plant response rating (velvetleaf; [8]): 6 | Velvetleaf plant response rating (0 to 10 scale) (velvetleaf; [13]): 6 | Plant response rating, Velvetleaf (velvetleaf; [14]): 7 | Velvetleaf plant response rating (velvetleaf; [11]): 8 | Plant response rating, Velvetleaf (velvetleaf; [15]): 3

CC(C)N(C(=O)n1oc(=O)n(C(C)(C)C)c1=O)c1ccc(Cl)cc1 [Compound 118]
Plant response rating, Wheat (winter) (winter wheat [1]; Rate 250 g/ha, 0 to 100 scale): 50 | Plant response rating, Wheat (winter) (winter wheat [1]; [16]): 70 | Plant response rating, Blackgrass (blackgrass; Rate 250 g/ha, 0 to 100 scale): 80 | Plant response rating, Blackgrass (blackgrass; [16]): 100 | Rice plant response rating (rice; Rate 250 g/ha, headed Pre-emergence (flood test species), scale 0 to 10 (0 no effect, 10 complete control)): 0 | Plant response rating, Rice (rice; Rate 500 g/ha, headed Pre-emergence (flood test species), scale 0 to 10 (0 no effect, 10 complete control)): 0 | Rice plant response rating (rice; Rate 1000 g/ha, Pre-emergence (as headed), scale 0 to 10): 0 | Rice plant response rating (rice; Rate 2000 g/ha, Pre-emergence (as headed), scale 0 to 10): 0 | Crabgrass plant response rating (crabgrass; [6]): 7 | Crabgrass plant response rating (crabgrass; [7]): 7 | Crabgrass plant response rating (crabgrass; [8]): 7 | Plant response rating, Crabgrass (crabgrass; [9]): 9 | Plant response rating, Crabgrass (crabgrass; [10]): 10 | Crabgrass plant response rating (crabgrass; [17]): 10 | Crabgrass plant response rating (crabgrass; [18]): 1 | Crabgrass plant response rating (crabgrass; [12]): 9 | Corn plant response rating (corn; [6]): 0 | Corn plant response rating (corn; [7]): 0 | Corn plant response rating (corn; [8]): 0 | Plant response rating, Corn (corn; [9]): 0 | Plant response rating, Corn (corn; [10]): 0 | Corn plant response rating (corn; [17]): 0 | Corn plant response rating (corn; [18]): 0 | Corn plant response rating (corn; [12]): 3 | Plant response rating, Wild oat (wild oat; [16]): 70 | Plant response rating, Wheat (winter) (winter wheat [2]; Rate 250 g/ha, 0 to 100 scale (0 no effect, 100 complete control)): 65 | Plant response rating, Wheat (winter) (winter wheat [2]; Rate 500 g/ha, 0 to 100 scale, 0 no effect, 100 complete control): 70 | Plant response rating, Green foxtail (green foxtail; Rate 250 g/ha, 0 to 100 scale): 55 | Plant response rating, Green foxtail (green foxtail; [16]): 65 | Plant response rating, I. Ryegrass (Italian ryegrass; Rate 250 g/ha, 0 to 100 scale): 60 | Plant response rating, I. Ryegrass (Italian ryegrass; [16]): 60 | Plant response rating, Barley (winter) (winter barley; Rate 250 g/ha, 0 to 100 scale): 65 | Plant response rating, Barley (winter) (winter barley; [16]): 50 | Velvetleaf plant response rating (velvetleaf; [6]): 0 | Velvetleaf plant response rating (velvetleaf; [8]): 0 | Velvetleaf plant response rating (0 to 10 scale) (velvetleaf; [13]): 0 | Plant response rating, Velvetleaf (velvetleaf; [14]): 0 | Velvetleaf plant response rating (velvetleaf; [17]): 4 | Velvetleaf plant response rating (velvetleaf; [18]): 0 | Plant response rating, Velvetleaf (velvetleaf; [15]): 0 | Velvetleaf plant response rating (velvetleaf; [12]): 0
